MIC data for two compounds are collected here from ChEMBL document CHEMBL4229518, “New β-lactam - Tetramic acid hybrids show promising antibacterial activities” (Bioorg Med Chem Lett, 2018).

≈ marks a conversion by molar mass, not a printed value. Some results are limits rather than exact numbers.

By MIC is commonly meant the lowest concentration found to suppress growth. Low values mean greater potency, high ones weaker potency.

One assay has as its system Bacillus subtilis. The assay is described as follows: Antimicrobial activity against Bacillus subtilis ATCC 23857 after 18 to 20 hrs by microbroth dilution method. Format: functional.
Conditions: not given
Compound `CC(C)CC1NC(=O)C(C(=O)NCCC(=O)N[C@@H](C(=O)N[C@@H]2C(=O)N3C(C(=O)O)=C(Cl)CS[C@H]23)c2ccccc2)=C1O` (some centres not stated) had a minimum inhibitory concentration (MIC) of 0.78 µg/mL (≈ 1.26 µM).

Turning to `CC1=C(C(=O)O)N2C(=O)[C@@H](NC(=O)[C@H](NC(=O)C3=C(O)C(CC(C)C)NC3=O)c3ccccc3)[C@H]2SC1` (some centres not stated), inhibition of growth (MIC) required 25 µg/mL (≈ 47.3 µM).

The test system of the next assay is Enterobacter cloacae. Nature of the assay: Antimicrobial activity against Enterobacter cloacae ATCC 13047 after 18 to 20 hrs by microbroth dilution method. Format: functional. The following applies: subsp. cloacae ATCC 13047. A general note: In broth dilution the organism is exposed to a series of concentrations in liquid medium.
As to `CC(C)CC1NC(=O)C(C(=O)NCCC(=O)N[C@@H](C(=O)N[C@@H]2C(=O)N3C(C(=O)O)=C(Cl)CS[C@H]23)c2ccccc2)=C1O` (some centres not stated), the MIC was more than 200 µg/mL.

In the case of `CC1=C(C(=O)O)N2C(=O)[C@@H](NC(=O)[C@H](NC(=O)C3=C(O)C(CC(C)C)NC3=O)c3ccccc3)[C@H]2SC1` (some centres not stated), the MIC was more than 200 µg/mL.

A further assay concerns Proteus mirabilis. The assay is described as follows: Antimicrobial activity against Proteus mirabilis ATCC 25933 after 18 to 20 hrs by microbroth dilution method. The format is functional.
Conditions: not given
For the compound `CC(C)CC1NC(=O)C(C(=O)NCCC(=O)N[C@@H](C(=O)N[C@@H]2C(=O)N3C(C(=O)O)=C(Cl)CS[C@H]23)c2ccccc2)=C1O` (some centres not stated), the minimum inhibitory concentration (MIC) was found to be 1.56 µg/mL (≈ 2.52 µM).

Compound `CC1=C(C(=O)O)N2C(=O)[C@@H](NC(=O)[C@H](NC(=O)C3=C(O)C(CC(C)C)NC3=O)c3ccccc3)[C@H]2SC1` (some centres not stated) returned an MIC of 100 µg/mL (≈ 189 µM).

The subject of the next assay is Streptococcus pyogenes. Nature of the assay: Antimicrobial activity against Streptococcus pyogenes ATCC 700294 after 18 to 20 hrs by microbroth dilution method. Format: functional. The following applies: M1 GAS.
For `CC(C)CC1NC(=O)C(C(=O)NCCC(=O)N[C@@H](C(=O)N[C@@H]2C(=O)N3C(C(=O)O)=C(Cl)CS[C@H]23)c2ccccc2)=C1O` (some centres not stated), the MIC was 1.56 µg/mL (≈ 2.52 µM).

The compound `CC1=C(C(=O)O)N2C(=O)[C@@H](NC(=O)[C@H](NC(=O)C3=C(O)C(CC(C)C)NC3=O)c3ccccc3)[C@H]2SC1` (some centres not stated) displayed a minimal inhibitory concentration (MIC) of 3.13 µg/mL (≈ 5.92 µM).

In another assay the test system is Klebsiella pneumoniae. The assay is described as follows: Antimicrobial activity against Klebsiella pneumoniae ATCC 33495 after 18 to 20 hrs by microbroth dilution method. The format is functional.
Conditions: not given
Take `CC(C)CC1NC(=O)C(C(=O)NCCC(=O)N[C@@H](C(=O)N[C@@H]2C(=O)N3C(C(=O)O)=C(Cl)CS[C@H]23)c2ccccc2)=C1O` (some centres not stated): 50 µg/mL (≈ 80.6 µM) was the least that counted as inhibitory (MIC).

In turn, `CC1=C(C(=O)O)N2C(=O)[C@@H](NC(=O)[C@H](NC(=O)C3=C(O)C(CC(C)C)NC3=O)c3ccccc3)[C@H]2SC1` (some centres not stated) returned an MIC of more than 200 µg/mL.

The next assay deals with Bacillus cereus. The assay is described as follows: Antimicrobial activity against Bacillus cereus ATCC 14579 after 18 to 20 hrs by microbroth dilution method. The format is functional.
Conditions: not given
Compound `CC(C)CC1NC(=O)C(C(=O)NCCC(=O)N[C@@H](C(=O)N[C@@H]2C(=O)N3C(C(=O)O)=C(Cl)CS[C@H]23)c2ccccc2)=C1O` (some centres not stated) displayed an MIC of more than 200 µg/mL.

As to `CC1=C(C(=O)O)N2C(=O)[C@@H](NC(=O)[C@H](NC(=O)C3=C(O)C(CC(C)C)NC3=O)c3ccccc3)[C@H]2SC1` (some centres not stated), the MIC is more than 200 µg/mL.

The subject of another assay is Enterococcus faecalis. Nature of the assay: Antimicrobial activity against Enterococcus faecalis ATCC 33186 after 18 to 20 hrs by microbroth dilution method. Format: functional.
Conditions: not given
The compound `CC(C)CC1NC(=O)C(C(=O)NCCC(=O)N[C@@H](C(=O)N[C@@H]2C(=O)N3C(C(=O)O)=C(Cl)CS[C@H]23)c2ccccc2)=C1O` (some centres not stated) displayed an MIC of 100 µg/mL (≈ 161 µM).

In turn, `CC1=C(C(=O)O)N2C(=O)[C@@H](NC(=O)[C@H](NC(=O)C3=C(O)C(CC(C)C)NC3=O)c3ccccc3)[C@H]2SC1` (some centres not stated) registered an MIC of 200 µg/mL (≈ 378 µM).

The subject of the next assay is Escherichia coli. Nature of the assay: Antimicrobial activity against tolC deficient Escherichia coli JW5503-1 after 18 to 20 hrs by microbroth dilution method. Format: functional.
Conditions: not given
In the case of `CC(C)CC1NC(=O)C(C(=O)NCCC(=O)N[C@@H](C(=O)N[C@@H]2C(=O)N3C(C(=O)O)=C(Cl)CS[C@H]23)c2ccccc2)=C1O` (some centres not stated), the MIC was 12.5 µg/mL (≈ 20.2 µM).

The compound `CC1=C(C(=O)O)N2C(=O)[C@@H](NC(=O)[C@H](NC(=O)C3=C(O)C(CC(C)C)NC3=O)c3ccccc3)[C@H]2SC1` (some centres not stated) returned an MIC of 100 µg/mL (≈ 189 µM).

The test system of another assay is Acinetobacter baumannii. The assay is described as follows: Antimicrobial activity against Acinetobacter baumannii ATCC 19606 after 18 to 20 hrs by microbroth dilution method. The following applies: ATCC 19606 = CIP 70.34 = JCM 6841. The format is functional.
Turning to `CC(C)CC1NC(=O)C(C(=O)NCCC(=O)N[C@@H](C(=O)N[C@@H]2C(=O)N3C(C(=O)O)=C(Cl)CS[C@H]23)c2ccccc2)=C1O` (some centres not stated), the minimum inhibitory concentration (MIC) is 50 µg/mL (≈ 80.6 µM).

As for `CC1=C(C(=O)O)N2C(=O)[C@@H](NC(=O)[C@H](NC(=O)C3=C(O)C(CC(C)C)NC3=O)c3ccccc3)[C@H]2SC1` (some centres not stated), the lowest concentration to inhibit growth (MIC) was 100 µg/mL (≈ 189 µM).

A further assay has as its system Streptococcus pneumoniae. The assay is described as follows: Antimicrobial activity against Streptococcus pneumoniae R6 after 18 to 20 hrs by microbroth dilution method. Format: functional.
Conditions: not given
Consider `CC(C)CC1NC(=O)C(C(=O)NCCC(=O)N[C@@H](C(=O)N[C@@H]2C(=O)N3C(C(=O)O)=C(Cl)CS[C@H]23)c2ccccc2)=C1O` (some centres not stated), for which it took 0.39 µg/mL (≈ 0.629 µM) to inhibit growth (MIC).

`CC1=C(C(=O)O)N2C(=O)[C@@H](NC(=O)[C@H](NC(=O)C3=C(O)C(CC(C)C)NC3=O)c3ccccc3)[C@H]2SC1` (some centres not stated): the minimum inhibitory concentration (MIC) was 100 µg/mL (≈ 189 µM).

A further assay deals with Staphylococcus aureus. Nature of the assay: Antimicrobial activity against methicillin-susceptible Staphylococcus aureus NRS70 after 18 to 20 hrs by microbroth dilution method. The format is functional.
Conditions: not given
In turn, `CC(C)CC1NC(=O)C(C(=O)NCCC(=O)N[C@@H](C(=O)N[C@@H]2C(=O)N3C(C(=O)O)=C(Cl)CS[C@H]23)c2ccccc2)=C1O` (some centres not stated) returned a minimal inhibitory concentration (MIC) of 25 µg/mL (≈ 40.3 µM).

The compound `CC1=C(C(=O)O)N2C(=O)[C@@H](NC(=O)[C@H](NC(=O)C3=C(O)C(CC(C)C)NC3=O)c3ccccc3)[C@H]2SC1` (some centres not stated) registered a minimum inhibitory concentration (MIC) of 100 µg/mL (≈ 189 µM).

A further assay relates to Bacillus anthracis. Nature of the assay: Antimicrobial activity against Bacillus anthracis Sterne 34F2 after 18 to 20 hrs by microbroth dilution method. The format is functional.
Conditions: not given
`CC(C)CC1NC(=O)C(C(=O)NCCC(=O)N[C@@H](C(=O)N[C@@H]2C(=O)N3C(C(=O)O)=C(Cl)CS[C@H]23)c2ccccc2)=C1O` (some centres not stated) yielded an MIC of 12.5 µg/mL (≈ 20.2 µM).

As for `CC1=C(C(=O)O)N2C(=O)[C@@H](NC(=O)[C@H](NC(=O)C3=C(O)C(CC(C)C)NC3=O)c3ccccc3)[C@H]2SC1` (some centres not stated), it took 200 µg/mL (≈ 378 µM) to inhibit growth (MIC).

Another assay has as its system Escherichia coli. Nature of the assay: Antimicrobial activity against Escherichia coli BW25113 after 18 to 20 hrs by microbroth dilution method. The format is functional.
Conditions: not given
`CC(C)CC1NC(=O)C(C(=O)NCCC(=O)N[C@@H](C(=O)N[C@@H]2C(=O)N3C(C(=O)O)=C(Cl)CS[C@H]23)c2ccccc2)=C1O` (some centres not stated) had a minimum inhibitory concentration (MIC) of 12.5 µg/mL (≈ 20.2 µM).

For the compound `CC1=C(C(=O)O)N2C(=O)[C@@H](NC(=O)[C@H](NC(=O)C3=C(O)C(CC(C)C)NC3=O)c3ccccc3)[C@H]2SC1` (some centres not stated), the MIC is more than 200 µg/mL.

The test system of another assay is Staphylococcus aureus. Nature of the assay: Antimicrobial activity against methicillin-susceptible Staphylococcus aureus ATCC 29213 after 18 to 20 hrs by microbroth dilution method. Format: functional.
Conditions: not given
`CC(C)CC1NC(=O)C(C(=O)NCCC(=O)N[C@@H](C(=O)N[C@@H]2C(=O)N3C(C(=O)O)=C(Cl)CS[C@H]23)c2ccccc2)=C1O` (some centres not stated) yielded a minimal inhibitory concentration (MIC) of 0.78 µg/mL (≈ 1.26 µM).

`CC1=C(C(=O)O)N2C(=O)[C@@H](NC(=O)[C@H](NC(=O)C3=C(O)C(CC(C)C)NC3=O)c3ccccc3)[C@H]2SC1` (some centres not stated) showed an MIC of 12.5 µg/mL (≈ 23.6 µM).

In a further assay the test system is Stenotrophomonas maltophilia. The assay is described as follows: Antimicrobial activity against Stenotrophomonas maltophilia ATCC 700475 after 18 to 20 hrs by microbroth dilution method. Format: functional.
Conditions: not given
Compound `CC(C)CC1NC(=O)C(C(=O)NCCC(=O)N[C@@H](C(=O)N[C@@H]2C(=O)N3C(C(=O)O)=C(Cl)CS[C@H]23)c2ccccc2)=C1O` (some centres not stated) came in with an MIC of more than 200 µg/mL.

With `CC1=C(C(=O)O)N2C(=O)[C@@H](NC(=O)[C@H](NC(=O)C3=C(O)C(CC(C)C)NC3=O)c3ccccc3)[C@H]2SC1` (some centres not stated), the minimum inhibitory concentration (MIC) amounted to 100 µg/mL (≈ 189 µM).

The next assay concerns Pseudomonas aeruginosa. Nature of the assay: Antimicrobial activity against Pseudomonas aeruginosa PAO1 after 18 to 20 hrs by microbroth dilution method. Format: functional.
Conditions: not given
In the case of `CC(C)CC1NC(=O)C(C(=O)NCCC(=O)N[C@@H](C(=O)N[C@@H]2C(=O)N3C(C(=O)O)=C(Cl)CS[C@H]23)c2ccccc2)=C1O` (some centres not stated), the MIC is more than 200 µg/mL.

Compound `CC1=C(C(=O)O)N2C(=O)[C@@H](NC(=O)[C@H](NC(=O)C3=C(O)C(CC(C)C)NC3=O)c3ccccc3)[C@H]2SC1` (some centres not stated) showed an MIC of more than 200 µg/mL.
